BindingDB's records for doi:10.1021/jm051134w (Parion Sciences, 2006)

molecular target: Amiloride-sensitive sodium channel (Canis familiaris); assay: Inhibition of dog bronchi prototypical epithelial sodium channel by electrophysiological assay

SMILES	IC50
CCCCCCN=C(N)NC(=O)c1nc(Cl)c(N)nc1N [N-(3,5-diamino-6-chloropyrazine-2-carbonyl)-N'-hexylguanidine]	87 nM
NC(=NCCO)NC(=O)c1nc(Cl)c(N)nc1N [N-(3,5-diamino-6-chloropyrazine-2-carbonyl)-N'-(2-hydroxyethyl)guanidine]	107 nM
NC(=NCCCCc1cccc(OCC(O)CO)c1)NC(=O)c1nc(Cl)c(N)nc1N (stereo not given) [N-(3,5-diamino-6-chloropyrazine-2-carbony)-N'-{4-[3-(2,3-dihydroxypropoxy)-phenyl]butyl}guanidine]	26 nM
CCCCCCCCN=C(N)NC(=O)c1nc(Cl)c(N)nc1N [N-(3,5-diamino-6-chloropyrazine-2-carbonyl)-N'-octylguanidine]	108 nM
NC(=NCCCCCCCCc1ccccc1)NC(=O)c1nc(Cl)c(N)nc1N [N-(3,5-diamino-6-chloropyrazine-2-carbonyl)-N'-(8-phenyloctyl)guanidine]	477 nM
NC(=NCCc1ccc(O)cc1)NC(=O)c1nc(Cl)c(N)nc1N [N-(3,5-diamino-6-chloropyrazine-2-carbonyl)-N'-[2-(4-hydroxyphenyl)ethyl]-guanidine]	62 nM
NC(=NCCCCc1cccc(O)c1)NC(=O)c1nc(Cl)c(N)nc1N [N-(3,5-diamino-6-chloropyrazine-2-carbonyl)-N'-[4-(5-hydroxyphenyl)butyl]-guanidine]	20 nM
NC(=NCCCCc1ccccc1OCC(O)CO)NC(=O)c1nc(Cl)c(N)nc1N (stereo not given) [N-(3,5-diamino-6-chloropyrazine-2-carbony)-N'-{4-[2-(2,3-dihydroxypropoxy)-phenyl]butyl}guanidine]	28 nM
COc1ccc(COCCN=C(N)NC(=O)c2nc(Cl)c(N)nc2N)cc1 [N-(3,5-diamino-6-chloropyrazine-2-carbonyl)-N'-[2-(4-methoxybenzyloxy)ethyl]-guanidine]	41 nM
NC(=NCCCCc1ccc(OC2O[C@H](C(=O)O)[C@@H](O)[C@H](O)[C@H]2O)cc1)NC(=O)c1nc(Cl)c(N)nc1N (stereo not given in full) [6-(4-{4-[N'-(3,5-diamino-6-chloropyrazine-2-carbonyl)-guanidino]butyl}phenoxy)-3,4,5-trihydroxytetrahydropyran-2-carboxylic acid]	73 nM

Now from value to compound:

IC50	SMILES
9 nM	NC(=NCCCCc1ccc(OCCO)cc1)NC(=O)c1nc(Cl)c(N)nc1N [N-(3,5-diamino-6-chloropyrazine-2-carbonyl)-N'-{4-[4-(2-hydroxyethoxy)phenyl]-butyl}guanidine]
14 nM	NC(=NCCCCc1ccc(CO)cc1)NC(=O)c1nc(Cl)c(N)nc1N [N-(3,5-diamino-6-chloropyrazine-2-carbonyl)-N'-[4-(4-hydroxymethylphenyl)-butyl]guanidine]
17 nM	NC(=NCCCCc1cccc(OCCO)c1)NC(=O)c1nc(Cl)c(N)nc1N [N-(3,5-diamino-6-chloropyrazine-2-carbonyl)-N'-{4-[3-(2-hydroxyethoxy)phenyl]-butyl}guanidine]
88 nM	NC(=NCCCc1ccc(O)cc1)NC(=O)c1nc(Cl)c(N)nc1N [N-(3,5-diamino-6-chloropyrazine-2-carbonyl)-N'-[3-(4-hydroxyphenyl)propyl]-guanidine]
124 nM	COc1ccc(CCCN=C(N)NC(=O)c2nc(Cl)c(N)nc2N)cc1 [N-(3,5-diamino-6-chloropyrazine-2-carbonyl)-N'-[3-(4-methoxyphenyl)propyl]-guanidine]
22 nM	COC(=O)c1ccc(CCCCN=C(N)NC(=O)c2nc(Cl)c(N)nc2N)cc1 [4-{4-[N'-(3,5-diamino-6-chloropyrazine-2-carbonyl)guanidino]-butyl}benzoic acid methyl ester]
31 nM	NC(=NCCCCc1ccccc1OCCO)NC(=O)c1nc(Cl)c(N)nc1N [N-(3,5-diamino-6-chloropyrazine-2-carbonyl)-N'-{4-[2-(2-hydroxyethoxy)phenyl]-butyl}guanidine]
77 nM	COc1ccc(CCCCCN=C(N)NC(=O)c2nc(Cl)c(N)nc2N)cc1 [N-(3,5-diamino-6-chloropyrazine-2-carbonyl)-N'-[5-(4-methoxyphenyl)pentyl]-guanidine]
15 nM	COc1ccc(CCCCN=C(N)NC(=O)c2nc(Cl)c(N)nc2N)cc1 [N-(3,5-diamino-6-chloropyrazine-2-carbonyl)-N'-[4-(4-methoxyphenyl)butyl]-guanidine]
51 nM	NC(=NCCCCc1ccc(C(=O)O)cc1)NC(=O)c1nc(Cl)c(N)nc1N [4-{4-[N'-(3,5-diamino-6-chloropyrazine-2-carbonyl)guanidino]-butyl}benzoic acid]
7 nM	NC(=NCCCCc1ccc(OCCCO)cc1)NC(=O)c1nc(Cl)c(N)nc1N [N-(3,5-diamino-6-chloropyrazine-2-carbonyl)-N'-{4-[4-(3-hydroxypropoxy)phenyl]-butyl}guanidine]
32 nM	NC(=NCCCOc1ccc(O)cc1)NC(=O)c1nc(Cl)c(N)nc1N [N-(3,5-diamino-6-chloropyrazine-2-carbonyl)-N'-[3-(4-hydroxyphenoxy)propyl]-guanidine]
29 nM	NC(=NCCCCc1ccccc1)NC(=O)c1nc(Cl)c(N)nc1N [N-(3,5-diamino-6-chloropyrazine-2-carbonyl)-N'-(4-phenylbutyl)guanidine]
21 nM	NC(=NCCCCc1ccc(N)cc1)NC(=O)c1nc(Cl)c(N)nc1N [1-(4-(4-aminophenyl)butyl)-3-(3,5-diamino-2-chloropyrazine-6-carbonyl)guanidine]
68 nM	NC(=NCCCCCc1ccccc1)NC(=O)c1nc(Cl)c(N)nc1N [N-(3,5-diamino-6-chloropyrazine-2-carbonyl)-N'-(5-phenylpentyl)guanidine]
